Test results: patent US20260250318A1, “COMPOSITIONS AND METHODS FOR CROSSING THE BLOOD BRAIN BARRIER” (VOYAGER THERAPEUTICS, INC., priority 2022, published 2026)

Key:
brain = experiment: Matured TTM-001 and TTM-002 variants, NGS enrichment in mouse brain; format: in vivo, mice; settings: relative to AAV9 control
[1] = system: brains, heart, liver, muscle, and DRG of the NHPs; experiment: Maturation of TTM-001 and TTM-002 capsids, NGS enrichment in NHP tissues; format: in vivo; settings: relative to AAV9 control
Method in brief: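 Variants carry mutations within and flanking the loop IV peptide insert: positions 450–466 were triplet-randomized, while positions 449–466 received low-frequency point mutations. The combined pool went into two NHPs, and each peptide was scored by NGS enrichment ratio against AAV9.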

[2] = NGS fold-enrichment, brain of mice
[3] = NGS fold-enrichment, DRG of NHPs
[4] = NGS fold-enrichment, RNA, brain of NHPs
[5] = NGS fold-enrichment, heart of NHPs
[6] = NGS fold-enrichment, liver DNA of NHPs
[7] = NGS fold-enrichment, liver RNA of NHPs
[8] = NGS fold-enrichment, muscle of NHPs
[9] = NGS fold-enrichment, mouse brain
[10] = NGS fold-enrichment of RNA, NHP brain
[11] = NGS fold-enrichment, NHP liver DNA
[12] = NGS fold-enrichment, NHP liver RNA
[13] = NGS fold-enrichment, NHP muscle
[14] = NGS fold-enrichment of matured AAV capsid variants, NHP brain, RNA

Sequence	Fold Enrichment relative to AAV9, Brain (Mouse) (brain; [2])	Fold Enrichment relative to AAV9, DRG (NHP) [1, 3]	Fold Enrichment relative to AAV9, Brain (NHP) [1, 4]	Fold Enrichment relative to AAV9, Heart (NHP) [1, 5]	Fold Enrichment relative to AAV9, Liver DNA (NHP) [1, 6]	Fold Enrichment relative to AAV9, Liver RNA (NHP) [1, 7]	Fold Enrichment relative to AAV9, Muscle (NHP) [1, 8]	Fold Enrichment relative to AAV9, Brain (Mouse) (brain; [9])	Fold Enrichment relative to AAV9, Brain (NHP) [1, 10]	Fold Enrichment relative to AAV9, DRG (NHP) ([1]; NGS fold-enrichment, NHP DRG)	Fold Enrichment relative to AAV9, Heart (NHP) ([1]; NGS fold-enrichment, NHP heart)	Fold Enrichment relative to AAV9, Liver DNA (NHP) [1, 11]	Fold Enrichment relative to AAV9, Liver RNA (NHP) [1, 12]	Fold Enrichment relative to AAV9, Muscle (NHP) [1, 13]	also measured
KTINGSGSPHSKAQYQHA	57.278 fold	0.000 fold	64.435 fold	0.000 fold	0.097 fold	0.993 fold	0.024 fold	–	–	–	–	–	–	–	–
KTINGSGSPHSKAQPAKT	215.275 fold	0.331 fold	111.472 fold	0.000 fold	1.796 fold	0.044 fold	1.089 fold	215.275 fold	111.472 fold	0.331 fold	0.000 fold	1.796 fold	0.044 fold	1.089 fold	–
KTESHSGSPHSKAQNQQT	52.506 fold	0.000 fold	61.947 fold	0.000 fold	0.106 fold	1.480 fold	0.000 fold	–	–	–	–	–	–	–	–
KTINGHESPHKSGQNQHS	–	–	–	–	–	–	–	9.720 fold	92.248 fold	0.000 fold	0.032 fold	0.088 fold	0.090 fold	0.012 fold	–
KTESRHDSPHKSGQNQQT	–	–	–	–	–	–	–	6.975 fold	81.766 fold	0.000 fold	0.011 fold	0.036 fold	0.052 fold	0.000 fold	–
KTINGSGSPHSKRLEQQT	–	–	–	–	–	–	–	–	–	–	–	–	–	–	Fold Enrichment relative to AAV9, Brain (Mouse) (brain; mouse brain): 71.704 fold; Fold Enrichment relative to AAV9, Brain (NHP) [1, 14]: 53.512 fold; Fold Enrichment relative to AAV9, DRG (NHP) ([1]; NHP DRG): 0.000 fold; Fold Enrichment relative to AAV9, Heart (NHP) ([1]; NHP heart): 0.118 fold; Fold Enrichment relative to AAV9, Liver DNA (NHP) ([1]; NHP liver, DNA): 0.292 fold; Fold Enrichment relative to AAV9, Liver RNA (NHP) ([1]; NHP liver, RNA): 0.161 fold; Fold Enrichment relative to AAV9, Muscle (NHP) ([1]; NHP muscle): 0.003 fold
KTINGSGSPHSKAQSQQL	51.126 fold	0.000 fold	70.539 fold	0.000 fold	0.041 fold	0.000 fold	0.000 fold	–	–	–	–	–	–	–	–
KTTNGSGSPHSKAQYQHT	83.337 fold	0.000 fold	67.325 fold	0.000 fold	0.080 fold	1.378 fold	0.000 fold	–	–	–	–	–	–	–	–
KTVNGSGSPHSKAQYQHT	54.158 fold	0.000 fold	72.847 fold	0.000 fold	0.130 fold	0.000 fold	0.000 fold	–	–	–	–	–	–	–	–
KTINGSGSPHSKAQAITT	–	–	–	–	–	–	–	–	–	–	–	–	–	–	Fold Enrichment relative to AAV9, Brain (Mouse) (brain; mouse brain): 75.250 fold; Fold Enrichment relative to AAV9, Brain (NHP) [1, 14]: 56.924 fold; Fold Enrichment relative to AAV9, DRG (NHP) ([1]; NHP DRG): 0.000 fold; Fold Enrichment relative to AAV9, Heart (NHP) ([1]; NHP heart): 0.000 fold; Fold Enrichment relative to AAV9, Liver DNA (NHP) ([1]; NHP liver, DNA): 0.438 fold; Fold Enrichment relative to AAV9, Liver RNA (NHP) ([1]; NHP liver, RNA): 1.239 fold; Fold Enrichment relative to AAV9, Muscle (NHP) ([1]; NHP muscle): 0.000 fold
KTINGNGSPHSKAQNHQA	–	–	–	–	–	–	–	36.754 fold	88.274 fold	0.000 fold	0.024 fold	0.041 fold	0.000 fold	0.000 fold	–
KTINGNDSPHKSVQNHQT	–	–	–	–	–	–	–	7.920 fold	120.002 fold	0.000 fold	0.099 fold	0.000 fold	0.000 fold	0.788 fold	–
KTINGSGSPHSKAQLPST	–	–	–	–	–	–	–	–	–	–	–	–	–	–	Fold Enrichment relative to AAV9, Brain (Mouse) (brain; mouse brain): 84.918 fold; Fold Enrichment relative to AAV9, Brain (NHP) [1, 14]: 56.238 fold; Fold Enrichment relative to AAV9, DRG (NHP) ([1]; NHP DRG): 0.005 fold; Fold Enrichment relative to AAV9, Heart (NHP) ([1]; NHP heart): 4.258 fold; Fold Enrichment relative to AAV9, Liver DNA (NHP) ([1]; NHP liver, DNA): 0.185 fold; Fold Enrichment relative to AAV9, Liver RNA (NHP) ([1]; NHP liver, RNA): 1.040 fold; Fold Enrichment relative to AAV9, Muscle (NHP) ([1]; NHP muscle): 0.001 fold
KTVNGSGSPHSKTQSQQT	63.248 fold	0.000 fold	115.086 fold	0.726 fold	0.340 fold	0.000 fold	0.000 fold	63.248 fold	115.086 fold	0.000 fold	0.726 fold	0.340 fold	0.000 fold	0.000 fold	–
KAINGHDSPHKSAQSQQT	–	–	–	–	–	–	–	14.595 fold	95.204 fold	0.146 fold	0.310 fold	0.058 fold	0.699 fold	0.000 fold	–
KTISGSGSPHSKAQYQHT	59.822 fold	0.000 fold	66.739 fold	0.000 fold	0.191 fold	0.000 fold	0.000 fold	–	–	–	–	–	–	–	–
KTIDGSGSPHSKGQNRQT	63.626 fold	0.000 fold	73.930 fold	0.000 fold	0.091 fold	0.106 fold	0.000 fold	–	–	–	–	–	–	–	–
